The values below come from ChEMBL document CHEMBL3507680, “University of Dundee, Gates Library screen for HepG2 cell viability”.

Structures are written as SMILES.

This data set can be described thus: Human HepG2 cell viability assay in 384 well format. Also on record: dose 125 nL, time 70.5 hour; concentration not given beside the values. Conditions: HepG2 cells, read-out: Inhibition. It is filed as toxicity, cell-based.
Turning to `COc1ccc(CN(C)[C@@H]2CN(S(=O)(=O)C(C)C)C[C@H]2O)cc1`, the cytotoxicity at 70.5 h is -2.64%.

`CC(c1cccc(Cl)c1)N1CCN(S(C)(=O)=O)CC1` (stereo not given): the cytotoxicity at 70.5 h is -1.61%.

For `CNS(=O)(=O)Cc1ccc(CNC(=O)c2ccccn2)cc1`, the cytotoxicity at 70.5 h is -9.74%.

With `COC(=O)c1ccc(N2CCN(CCC#N)C(C)C2)cc1` (stereo not given), the cytotoxicity at 70.5 h was found to be 11.4%.

With `Cc1ccnn1CCNC(=O)c1cnc(N(C)C)nc1`, the cytotoxicity at 70.5 h was -4.92%.

In the case of `Fc1ccccc1CN1CCCN(c2ccc3cc[nH]c3n2)CC1`, the cytotoxicity at 70.5 h was -4.59%.

Regarding `CCOCc1ccccc1NC(=O)NC1CCN(CC(F)(F)F)C1` (stereo not given), the cytotoxicity at 70.5 h was -6.42%.

Regarding `CC(C)O[C@@H]1CC[C@H]2[C@H]1OCCN2C(=O)c1nn(C)c2ccccc12`, the cytotoxicity at 70.5 h worked out at 1.07%.

Take `Cc1ccc(C(C(=O)O)N(C)CCN2CCOCC2)c(F)c1` (stereo not given): the cytotoxicity at 70.5 h was -9.66%.

On to `COC(=O)c1ccc(CN(C(C)C)C(C)C)o1`, for which the cytotoxicity at 70.5 h is -2.95%.

Regarding `Cn1ccnc1C1CCCN(C(=O)c2ccc3nccnc3c2)C1` (stereo not given), the cytotoxicity at 70.5 h stood at 2.22%.

With `Cc1ccc(C(=O)NCCS(=O)(=O)Cc2ccccc2)c(=O)[nH]1`, the cytotoxicity at 70.5 h is -9.89%.

On to `COC(C)c1cccc(NCc2cccc(O)c2)c1` (stereo not given), for which the cytotoxicity at 70.5 h was -4%.

Consider `O=C(NCCc1ccccn1)N1CCSC2(CCCCC2)C1`, for which the cytotoxicity at 70.5 h amounted to 1.93%.

`Cc1nonc1CN(C)Cc1cnn(-c2ccc(F)cc2)c1`: the cytotoxicity at 70.5 h was 0.663%.

For `O=C(c1cncc(NCC2COc3ccccc3C2)n1)N1CCOCC1` (stereo not given), the cytotoxicity at 70.5 h is -7.07%.

Turning to `CC(=O)N1CCC(c2n[nH]cc2-c2ccnc(N)c2)C1` (stereo not given), the cytotoxicity at 70.5 h came out at 15.7%.

Regarding `CN(C)C(Cn1ccnc1-c1ccccc1C(=O)O)c1ccccc1Cl` (stereo not given), the cytotoxicity at 70.5 h worked out at 10.5%.

As for `CC(=O)N(Cc1noc(C)n1)C1CCN(Cc2ccncc2Cl)C1` (stereo not given), the cytotoxicity at 70.5 h was -4.45%.

As to `Cc1ccc(N(C)C2CCN(C(=O)c3ccsc3)CC2)nn1`, the cytotoxicity at 70.5 h was -13.8%.

In the case of `Cc1nc(COCc2cnc3n2CCN(C2CCC2)C3C)cs1` (stereo not given), the cytotoxicity at 70.5 h was -12.4%.

For the compound `CS(=O)(=O)N1CCN(C(=O)c2[nH]c3ccc(Cl)cc3c2Cl)CC1`, the cytotoxicity at 70.5 h is -6.15%.

Regarding `CC(C)c1nc(C(=O)N2CCOCC2CC(=O)c2ccco2)cs1` (stereo not given), the cytotoxicity at 70.5 h was -2.9%.

For the compound `CC(NC(=O)NCc1cccnc1N1CCCCC1)c1nccs1` (stereo not given), the cytotoxicity at 70.5 h is -4.81%.

`COCCn1ccc(=O)c(OCC(=O)Nc2cccc(OC)c2)c1C`: the cytotoxicity at 70.5 h stood at 13.8%.

On to `O=C1NCC2(CCCN(C(=O)CCn3cnc4ccccc43)CC2)O1` (stereo not given), for which the cytotoxicity at 70.5 h is -1.01%.

Take `O=C1CC2(CCN(Cc3cccnc3)C2)CN1c1ccc2c(c1)OCO2` (stereo not given): the cytotoxicity at 70.5 h amounted to 12.8%.

As for `Cn1cnc2cc(CCC(=O)Nc3nc[nH]n3)ccc21`, the cytotoxicity at 70.5 h was -0.94%.

In the case of `Cc1cc(CN(CCCO)c2ccccc2)on1`, the cytotoxicity at 70.5 h is -0.833%.

On to `CCC(=O)NC1CCCN(C(=O)Nc2cc(-c3ccccc3)on2)C1` (stereo not given), for which the cytotoxicity at 70.5 h is -10.8%.

With `CN(CC1CC1)c1ccc2ccc(C(=O)NCCN3CCOCC3)cn12`, the cytotoxicity at 70.5 h was -5.52%.

For the compound `c1cncc(-c2ncnc3c2CCN(Cc2cccs2)CC3)c1`, the cytotoxicity at 70.5 h was determined as 16.4%.

In the case of `CCCn1nccc1C(=O)Nc1nc(C)c(C)s1`, the cytotoxicity at 70.5 h worked out at 11.9%.

With `O=C(N[C@@H]1CN(Cc2cccs2)[C@@H]2CCCO[C@@H]21)c1cscn1`, the cytotoxicity at 70.5 h is -9.16%.

In the case of `c1cc(CN2CCCC(c3ccnc4nccn34)C2)ccn1` (stereo not given), the cytotoxicity at 70.5 h was -3.33%.

For `c1cnc2nc(C3CCNCC3)[nH]c2c1`, the cytotoxicity at 70.5 h is -11.9%.

Turning to `CC(C)c1cc(CN(C)C(=O)CN2CCC(C(N)=O)CC2)no1`, the cytotoxicity at 70.5 h is -14.7%.

As to `CNC(=O)NC(=O)Cn1cc(-c2ccccc2)cn1`, the cytotoxicity at 70.5 h is -2.21%.

For `O=C(NCc1cccnc1)[C@H]1C[C@@H]2CCN(c3ccncn3)C[C@H]2O1`, the cytotoxicity at 70.5 h was -5.01%.

Turning to `CCOCC(O)CN1CCN(C(=O)C2CCC2)CC1` (stereo not given), the cytotoxicity at 70.5 h is -3.91%.
